Numbered stars: 1 amine (or outer) side, 2 acyl side, 3 side chain; on linkers, the order of the positions; unused ones are H or OH. Square brackets hold non-standard residues; d marks the D form. Peptide text beside a SMILES is read from it. * marks the point of attachment. X4 = O=C(NO)C(Cc1ccccc1)N(CC(=O)[*:2])[*:1]; γGlu = O=C(O)[C@H](CCC(=O)[*:2])N[*:1]; X2 = O=C(Cc1ccc(N[*:1])cc1)[*:2]; X3 = O=C(O)C(Cc1ccccc1)NCCC(=O)*; X1 = O=C(C(CS)Cc1ccccc1)*

For test [1], the target named is T1, ANP clearance receptor on bovine aortic smooth muscle (BASM) cells (Bos taurus, UniProt P10730).
T1 construct: endogenous in cells; host or cells: bovine aortic smooth muscle (BASM) cells
T1 sequence (P10730 42-537): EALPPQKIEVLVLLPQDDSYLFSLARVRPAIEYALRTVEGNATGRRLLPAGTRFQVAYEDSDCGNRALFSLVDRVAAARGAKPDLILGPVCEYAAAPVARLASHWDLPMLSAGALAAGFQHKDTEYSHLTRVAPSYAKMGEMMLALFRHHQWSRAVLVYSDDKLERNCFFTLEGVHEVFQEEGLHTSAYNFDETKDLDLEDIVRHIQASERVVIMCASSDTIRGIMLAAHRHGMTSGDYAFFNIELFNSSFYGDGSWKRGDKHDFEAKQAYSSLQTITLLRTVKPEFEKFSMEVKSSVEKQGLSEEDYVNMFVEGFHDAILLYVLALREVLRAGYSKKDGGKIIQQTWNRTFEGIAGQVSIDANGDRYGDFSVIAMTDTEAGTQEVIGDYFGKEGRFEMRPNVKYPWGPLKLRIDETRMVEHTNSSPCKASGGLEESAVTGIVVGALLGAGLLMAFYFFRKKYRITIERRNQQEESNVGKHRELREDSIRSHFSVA
The test is described as follows: BASM receptor binding assay (competition with I125 labeled rANP(102-126)). The note with it: read-out: Ki(app). The text has this: (§1) The assay systems used are adapted from those of Schenk, D. B., et al, Biochem Biophys Res Commun (1985) 127:433-442 and Scarborough, R. M., J Biol Chem (1986) 261:12960-12964. These assays measure clearance receptor binding affinity through competition with ANP using the receptors on bovine aortic smooth muscle (BASM) or bovine aortic endothelial (BAE) cells. Also employed is the receptor binding affinity assay for the clearance receptor in isolated perfused rat kidney as described by Maack, T., et al, Science (1987) 238:675-679.

The target in the next test is T2, Endopeptidase 24.11 (Rattus norvegicus, UniProt P07861).
T2 construct: rat urine was collected and desalted on Sephadex G-25; from tissue; host or cells: rat urine, desalted on Sephadex G-25
T2 sequence (P07861 1-750): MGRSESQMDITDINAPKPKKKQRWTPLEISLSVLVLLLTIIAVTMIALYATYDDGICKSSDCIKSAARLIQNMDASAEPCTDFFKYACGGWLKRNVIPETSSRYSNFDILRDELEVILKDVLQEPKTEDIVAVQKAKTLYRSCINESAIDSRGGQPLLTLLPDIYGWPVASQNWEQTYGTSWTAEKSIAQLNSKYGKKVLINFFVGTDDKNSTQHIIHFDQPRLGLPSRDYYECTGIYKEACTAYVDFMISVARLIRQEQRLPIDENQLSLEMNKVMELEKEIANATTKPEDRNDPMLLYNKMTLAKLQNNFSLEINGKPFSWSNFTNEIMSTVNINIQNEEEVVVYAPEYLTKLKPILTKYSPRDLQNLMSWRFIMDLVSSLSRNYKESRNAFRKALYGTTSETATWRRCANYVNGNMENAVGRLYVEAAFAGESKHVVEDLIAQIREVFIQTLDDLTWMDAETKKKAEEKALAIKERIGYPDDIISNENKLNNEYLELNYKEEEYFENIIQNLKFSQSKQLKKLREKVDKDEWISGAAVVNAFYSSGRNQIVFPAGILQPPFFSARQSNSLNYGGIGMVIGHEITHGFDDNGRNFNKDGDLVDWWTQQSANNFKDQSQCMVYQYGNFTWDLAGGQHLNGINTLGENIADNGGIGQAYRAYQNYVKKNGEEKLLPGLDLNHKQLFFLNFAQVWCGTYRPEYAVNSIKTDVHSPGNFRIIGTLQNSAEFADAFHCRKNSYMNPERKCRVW
Description: Inhibition of endopeptidase 24.11 (cleavage of rANP(99-126), HPLC). The settings on record: for inhibition at 0.02 µM: 20 nM; for inhibition at 0.02 µM / inhibition at 0.1 µM / inhibition at 1 µM / inhibition at 10 µM: read-out: % Inhibition of Metabolite Formation; for inhibition at 0.1 µM: 100 nM. It is filed as biochemical. How it is done:
Endopeptidase 24.11 inactivates ANP by cleavage at the Cys^105 -Phe^106 amide bond. The ability of the compounds of the invention to inhibit this degradation was assayed by a modification of the procedure of Ura, N., et al, Kidney Int (1987) 32:507-513 by substituting rANP(99-126) for bradykinin as a substrate.
Briefly, rat urine was collected and desalted on Sephadex G-25 as described by Ura (supra) and 4 ul of sample in 100 ul 0.1M Tris buffer, pH 7.2 containing aminopeptidase inhibitor bestatin (10 ug/ml), potato tuber carboxy peptidase inhibitor (10 ug/ml) and aprotinin (5,000 kalikrein inhibitory unit/ml) were incubated for 15 min at 37° C. The assay was then initiated by addition of 2-10 ug rANP(99-126) to a final volume of 0.5 ml and incubated at 10-20 min at 37° C. Termination of the reaction was accomplished by boiling, spinning and freezing.
Compounds to be tested for their ability to inhibit the endopeptidase were added to the preincubation mixture 15 min before addition of substrate.
The frozen samples, incubated with or without inhibitor, were thawed and analyzed by HPLC to determine the concentration of starting rANP(99-126) and its degradation product. HPLC analysis was conducted on Vydac C18 reverse phase HPLC column (4.6 mm ID×12.5 cm; 5 uM, 300A). A linear gradient of 15-35% acetonitrile containing 0.1% TFA was run at 1.0 ml/min on a Perkin-Elmer series 4 HPLC system. The effluent was monitored at 220 nm and the peptide peak heights measured.
The results were computed as the percent of the Cys^105 -Phe^106 cleavage metabolite peak in the test sample as compared to the peak height for this metabolite in the control.

Test [2] addresses T3, clearance receptor in isolated perfused rat kidney (Rattus norvegicus, UniProt P41740).
T3 construct: the clearance receptor in isolated perfused rat kidney; from tissue; host or cells: isolated perfused rat kidney
T3 sequence (P41740 41-535): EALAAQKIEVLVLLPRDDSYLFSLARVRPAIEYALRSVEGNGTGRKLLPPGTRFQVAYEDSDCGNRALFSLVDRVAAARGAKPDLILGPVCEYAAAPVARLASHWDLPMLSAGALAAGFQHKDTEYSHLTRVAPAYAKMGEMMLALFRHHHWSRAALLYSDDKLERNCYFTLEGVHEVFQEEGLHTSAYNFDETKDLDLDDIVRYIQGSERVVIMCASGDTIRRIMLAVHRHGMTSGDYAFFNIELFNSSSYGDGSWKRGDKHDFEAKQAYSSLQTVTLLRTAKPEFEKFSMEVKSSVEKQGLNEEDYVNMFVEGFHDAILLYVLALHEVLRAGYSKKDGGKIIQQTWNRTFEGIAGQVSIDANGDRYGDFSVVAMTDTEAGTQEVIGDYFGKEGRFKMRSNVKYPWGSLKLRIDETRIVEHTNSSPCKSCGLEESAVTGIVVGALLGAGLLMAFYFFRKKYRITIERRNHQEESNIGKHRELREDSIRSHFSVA
Description: Rat kidney receptor binding assay (isolated perfused rat kidney). The note with it: labeled compound 4 × 10^-12 M + competitor 1 × 10^-6 M; n = 2.
From the text: as §1
In the rat kidney receptor binding assay, the native 28-residue labeled ANP was used: I^125 labeled rANP(99-126), with the label linked to tyrosine at 126. The results of this assay are shown in Table 2 as the ratio of bound-to-free labeled rANP(99-126) in the presence and absence of competing compound.

`CC[C@H](C)[C@H](NC(=O)[C@H](CCCNC(=N)N)NC(=O)[C@H](CC(=O)O)NC(=O)[C@@H](NC(=O)[C@H](CCCNC(=N)N)NC(=O)CNC(=O)CNC(Cc1ccccc1)C(=O)NO)[C@@H](C)CC)C(N)=O` (stereo partly shown) [Analog 702] (H-[X4]GRIDRI-NH2): the Ki in test [1] was found to be 4.6 nM.
Take `CC[C@H](C)[C@H](NC(=O)[C@H](CCCNC(=N)N)NC(=O)[C@H](CC(=O)O)NC(=O)[C@@H](NC(=O)[C@H](CCCNC(=N)N)NC(=O)CNC(=O)[C@H](CC(=O)O)NC(=O)C(CS)Cc1ccccc1)[C@@H](C)CC)C(N)=O` (stereo partly shown) [Analog 12] (X1-DGRIDRI-NH2): the Ki in test [1] amounted to 207 nM.
Broadly, the inhibition is the relative decrease from the control value, in per cent. As for `O=C(O)CNC(=O)C(CS)Cc1ccccc1` (stereo not shown) [Thiorphan, thiorphan, reference compound], at Endopeptidase 24.11, the inhibition at 0.02 µM turned out to be 12%, the inhibition at 0.1 µM was determined as 53%, the inhibition at 1 µM came to 67% and the inhibition at 10 µM came out at 92%.
For the molecule `CC[C@H](C)[C@H](NC(=O)[C@H](CCCNC(=N)N)NC(=O)[C@H](CC(=O)O)NC(=O)[C@@H](NC(=O)[C@H](CCCNC(=N)N)NC(=O)Cc1ccc(NC(=O)C(CS)Cc2ccccc2)cc1)[C@@H](C)CC)C(N)=O` (stereo partly drawn) [Analog 122, MBP-4-APA--R--I--D--R--I--NH2] (X1-[X2]RIDRI-NH2), in test [1], the Ki was 10.9 nM. Also, at Endopeptidase 24.11, the inhibition at 0.02 µM came to 12%, the inhibition at 0.1 µM came to 25%, the inhibition at 1 µM is 72% and the inhibition at 10 µM turned out to be 97%.
Turning to `CC[C@H](C)[C@H](NC(=O)[C@H](CCCNC(=N)N)NC(=O)[C@H](CC(=O)O)NC(=O)[C@@H](NC(=O)[C@H](CCCNC(=N)N)NC(=O)CNC(=O)[C@H](CC(=O)O)NC(=O)[C@H](Cc1ccccc1)NC(Cc1ccccc1)C(=O)O)[C@@H](C)CC)C(N)=O` (stereo partly shown) [Analog 463], in test [1], the Ki amounted to 225 nM.
Turning to “F--[N]--F--G--G--R--I--D--R--I--NH2 [Analog 436]”, in test [2], the “Ratio of Bound/Free (125I)rANP(99-126), Whole Kidney” value is listed as 1.31.
For `CC[C@H](C)[C@H](NC(=O)[C@H](CCCNC(=N)N)NC(=O)[C@H](CC(=O)O)NC(=O)[C@@H](NC(=O)[C@H](CCCNC(=N)N)NC(=O)CNC(=O)[C@@H](CC(=O)O)NC(=O)C(CS)Cc1ccccc1)[C@@H](C)CC)C(N)=O` (stereo partly shown) [Analog 23] (X1-[dD]GRIDRI-NH2), the Ki in test [1] was 115 nM.
With `CC[C@H](C)[C@H](NC(=O)[C@H](CCCNC(=N)N)NC(=O)[C@H](CC(=O)O)NC(=O)[C@@H](NC(=O)[C@H](CCCNC(=N)N)NC(=O)CNC(=O)CNC(=O)C(CS)Cc1ccccc1)[C@@H](C)CC)C(N)=O` (stereo partly drawn) [Analog 1, MBP-G-G-R-I-D-R-I-NH2] (X1-GGRIDRI-NH2), in test [1], the Ki is 19.6 nM. Moreover, on Endopeptidase 24.11, the inhibition at 0.02 µM came out at 0%, the inhibition at 0.1 µM stood at 23%, the inhibition at 1 µM turned out to be 45% and the inhibition at 10 µM was 92%. For the same molecule, the IC50 at Endopeptidase 24.11 (approximate, from Table 3, read-out: ED50 of inhibition) was roughly 1000 nM.
With `CC[C@H](C)[C@H](NC(=O)[C@H](CCCNC(=N)N)NC(=O)[C@H](CC(=O)O)NC(=O)[C@@H](NC(=O)[C@H](CCCNC(=N)N)NC(=O)Cc1ccc(NC(=O)[C@H](Cc2ccccc2)NC(Cc2ccccc2)C(=O)O)cc1)[C@@H](C)CC)C(N)=O` (stereo partly drawn) [Analog 445, F[N]F-4-APA-R-I-D-R-I-NH2], in test [1], the Ki came to 6.5 nM. In addition, the inhibition at 10 µM at Endopeptidase 24.11 came to 0%.
For `CC[C@H](C)[C@H](NC(=O)[C@H](CCCNC(=N)N)NC(=O)[C@H](CC(=O)O)NC(=O)[C@@H](NC(=O)[C@H](CCCNC(=N)N)NC(=O)CNC(=O)CNC(=O)[C@H](Cc1ccccc1)NC(Cc1ccccc1)C(=O)O)[C@@H](C)CC)C(N)=O` (stereo partly shown) [Analog 436], the Ki in test [1] came out at 27.3 nM.
As for `CC[C@H](C)[C@H](NC(=O)[C@H](CCCNC(=N)N)NC(=O)[C@H](CC(=O)O)NC(=O)[C@@H](NC(=O)[C@H](CCCNC(=N)N)NC(=O)CC[C@H](NC(=O)[C@H](Cc1ccccc1)NC(CCc1ccccc1)C(=O)O)C(=O)O)[C@@H](C)CC)C(N)=O` (stereo partly shown) [Analog 544], the Ki in test [1] was found to be 58.2 nM.
`CC(C)C[C@H](NP(=O)(O)O[C@@H]1O[C@@H](C)[C@H](O)[C@@H](O)[C@H]1O)C(=O)N[C@@H](Cc1c[nH]c2ccccc12)C(=O)O` [Phosphoramidon, phosphoramidon, reference compound]: at Endopeptidase 24.11, the inhibition at 0.02 µM was 0%, the inhibition at 0.1 µM was 30%, the inhibition at 1 µM was 80% and the inhibition at 10 µM amounted to 97%.
Take `CC[C@H](C)[C@H](NC(=O)[C@H](CCCNC(=N)N)NC(=O)[C@H](CC(=O)O)NC(=O)[C@@H](NC(=O)[C@H](CCCNC(=N)N)NC(=O)CNC(=O)CCNC(Cc1ccccc1)C(=O)O)[C@@H](C)CC)C(N)=O` (stereo partly shown) [Analog 427] (X3-GRIDRI-NH2): the Ki in test [1] was determined as 11.5 nM.
Regarding `CC[C@H](C)[C@H](NC(=O)[C@H](CCCNC(=N)N)NC(=O)[C@H](CC(=O)O)NC(=O)[C@@H](NC(=O)[C@H](CCCNC(=N)N)NC(=O)CC[C@H](NC(=O)C(CS)Cc1ccccc1)C(=O)O)[C@@H](C)CC)C(N)=O` (stereo partly shown) [Analog 78] ({X1-γGlu}-RIDRI-NH2), the Ki in test [1] is 202 nM.
Regarding `CC[C@H](C)[C@H](NC(=O)[C@H](CCCNC(=N)N)NC(=O)[C@H](CC(=O)O)NC(=O)[C@@H](NC(=O)[C@H](CCCNC(=N)N)NC(=O)CNC(=O)CNC(Cc1ccccc1)C(=O)O)[C@@H](C)CC)C(N)=O` (stereo partly shown) [Analog 364], the Ki in test [1] is 66.9 nM.

Values taken from US5449662A, “Atrial natriuretic peptide clearance inhibitors which resist degradation” (Scios Nova Inc., priority 1992, dated 1995).
